Test results from US20230218544A1, “TREATMENT METHODS AND FORMULATIONS” (Curtin University, priority 2020, published 2023).
Entries after “also recorded” stand apart in the source; their conditions may differ.

Legend:
HEI-OC1 cells [1] = assay: Cisplatin cytotoxicity in inner ear sensory cells; format: cell-based, mouse; details: concentration used in subsequent experiments to ensure IC 50; 24 hours; read-out: IC 50 on cell viability
Experimental: House Ear Institute-Organ of Corti 1 (HEI-OC1) cells provided by Y J. Seo (Yonsei University, wonju, Korea) and F. Kalinec, (House Ear Institute, (Los Angeles, Calif., USA) were cultured in high-glucose Dulbecco's modified Eagle's medium (DMEM; Lonza, USA) supplemented with 10% Fetal bovine serum (FBS; Gibco BRL, USA) and 50 U/ml gamma-interferon (PEPRO TECH, INC. USA) without any antibiotics in a permissive condition (33° C., 10% CO2). For the non-permissive condition, cultured cells were cultured in the permissive condition for a certain period (Kalinec G, Thein P, Park C, Kalinec F. HEI-OC1 cells as a model for investigating drug cytotoxicity. […] Growth curves were performed to identify the growth patterns of cells in each condition. Cells cultured at 33° C., in a 10% CO2 atmosphere condition were recorded on day 0 after cell counting before seeding. Cells were recovered stripped daily from the cell dish and enumerated. This was done then, cell counted, confirmed for up to 14 days. Following the shift, cells were enumerated daily for 14 days. As explained above, HEI-OC1 cells were cultured in permissive conditions (33° C., 10% CO2) until day 5 and then transferred to the non-permissive condition (39° C., 5% CO2).
High-glucose DMEM supplemented with 0.5% FBS was used. […]

[2] = system: guinea pig model of ototoxicity; assay: Experimental Example 4: CAP thresholds in ototoxicity animal model with kanamycin and furosemide; format: in vivo, guinea pigs (Cavia porcellus); details: for difference of CAP between ototoxicity and ototoxicity with probucol sides: day 14 post-treatment
Experimental: Experiments were performed on 9 adult guinea pigs (Cavia porcellus) of either sex with body weights between 250 and 350 g. All experimental procedures were approved by The University of Curtin Animal Ethics Committee.
For all experiments, each animal first underwent a recovery surgery at day ‘zero’ to inject.
For the recovery surgery, each animal was given a 0.05 ml subcutaneous injection of Temgesic (Buprenorpherine; Reckitt Benckiser, Auckland NZ) and 0.1 ml of Atrosine (0.6 mg/ml atropine sulphate; Apex Laboratories, NSW, Australia) before being anesthetized using isoflurane (2-5%). The temperature was maintained using an electric heating pad, and lignocaine was used as a local anesthetic. While using aseptic techniques, animals were mounted on a custom ear-bar setup, and the left bulla surgically opened via a dorsal approach providing a view of the left round window, using aseptic techniques. Before the drug administrations, the AgCl ball-electrode (reference in the neck) was placed on the round window for recording compound action potential (CAP) responses (Brown D J, Chihara Y, Curthoys I S, Wang Y, Bos M. Changes in cochlear function during acute endolymphatic hydrops development in guinea pigs. Hearing Res. 2013; 296 (J. Neurophysiol. 101 2009):96-106. doi:10.1016/j.heares.2012.12.004; Brown D J, Pastras C J, Curthoys I S, Southwell C S, Roon L V. Endolymph movement visualized with light sheet fluorescence microscopy in an acute hydrops model. Hearing Res. 2016; 339 (PloS one 7 2012):112-124. doi:10.1016/j.heares.2016.06.007; and Brown D J, Sokolic L, Fung A, Pastras C J. Response of the Inner Ear to Lipopolysaccharide Introduced Directly into Scala Media. Hearing Res. 2018; 370 (Otol Neurotol 32 2011):105-112. doi:10.1016/j.heares.2018.10.007).
The bulla opening was resealed with dental cement before the overlying skin was sutured. The animal was then removed from isoflurane, and allowed to recover slowly under close observation. During recovery, the animal was given a subsequent 0.05 ml i.p. dose of Temgesic, along with an oral delivery of 1 ml Ibuprofen (40 mg/ml; Reckitt Benckiser Pty Ltd, Australia). Animals were then allowed to recover for 14 days (±3) days. For following CAP threshold measurements after 14 days, the bulla was re-opened with same procedures. Thereafter, animals were re-anaesthetized and mounted on the ear-bars, for a repeated measure of CAP thresholds described previously. Animals were then deeply anaesthetized, and euthanized via cardiac fixation for temporal bones harvesting.
The standard deviation of CAP thresholds was measured at day 0.

[3] = system: spiral ganglion neurons (SGNs); assay: Light sheet microscopy quantification of spiral ganglion neuron (SGN) density in cochlea; format: in vivo, guinea pig
Experimental: Harvested temporal bones were immersed in 4% para-formaldehyde overnight at 4° C., before being decalcified for 14-18 days in 10% EDTA. They were then rinsed with Sorenson's buffer, dehydrated in a series of 50, 75, 90 and 100% ethanol (8-12 h each step), and immersed in Spalteholz solution for 24 h, to render the sample optically transparent. Samples were then imaged using a custom light-sheet fluorescence microscope (LSFM), based on the setup described by Santi et al. (2009) (Santi P A. Light Sheet Fluorescence Microscopy. J Histochem Cytochem. 2010; 59(2):129-138. doi:10.1369/0022155410394857), where ‘virtual slices’ of the inner ear were imaged at […] steps in the axial plane, detailed in Brown et al. (2016) (Brown D J, Pastras C J, Curthoys I S, Southwell C S, Roon L V. Endolymph movement visualized with light sheet fluorescence microscopy in an acute hydrops model. Hearing Res. 2016; 339 (PloS one 7 2012):112-124. doi:10.1016/j.heares.2016.06.007), providing a ‘z-stack’ of between 300 and 1000 virtual slice images. LSFM images were analyzed by a blinded investigator, for later comparison to the functional data and treatment. LSFM z-stacks were analyzed using ImageJ software, with 3D volumes segmented for volume analysis using the Segmentation3D plugin. TIFF files collected from the light sheet microscope were reconstructed into representative 3D images. […]

HEI-OC1 cells [4] = assay: Cell viability with cisplatin and probucol (oto-protection); format: cell-based, mouse
Experimental: House Ear Institute-Organ of Corti 1 (HEI-OC1) cells provided by Y J. Seo (Yonsei University, wonju, Korea) and F. Kalinec, (House Ear Institute, (Los Angeles, Calif., USA) were cultured in high-glucose Dulbecco's modified Eagle's medium (DMEM; Lonza, USA) supplemented with 10% Fetal bovine serum (FBS; Gibco BRL, USA) and 50 U/ml gamma-interferon (PEPRO TECH, INC. USA) without any antibiotics in a permissive condition (33° C., 10% CO2). For the non-permissive condition, cultured cells were cultured in the permissive condition for a certain period (Kalinec G, Thein P, Park C, Kalinec F. HEI-OC1 cells as a model for investigating drug cytotoxicity. Hearing Res. 2016; 335:105-117. doi:10.1016/j.heares.2016.02.019). Growth curves were performed to identify the growth patterns of cells in each condition. Cells cultured at 33° C., in a 10% CO2 atmosphere condition were recorded on day 0 after cell counting before seeding. Cells were recovered stripped daily from the cell dish and enumerated. This was done then, cell counted, confirmed for up to 14 days. Following the shift, cells were enumerated daily for 14 days. As explained above, HEI-OC1 cells were cultured in permissive conditions (33° C., 10% CO2) until day 5 and then transferred to the non-permissive condition (39° C., 5% CO2).
Cisplatin was from Sigma Chemical Co. (St. Louis, Mo., USA). […]

[5] = system: guinea pig model of ototoxicity; assay: Experimental Example 3: round window CAP thresholds after kanamycin and furosemide ototoxicity; format: in vivo, guinea pigs (Cavia porcellus)
From the text: The animal was then removed from isoflurane, and allowed to recover slowly under close observation. […] Animals were then deeply anaesthetized, and euthanized via cardiac fixation for temporal bones harvesting.

In the case of `N.N.[Cl][Pt][Cl]` [cisplatin], the IC50 (HEI-OC1 cells [1]) is reported as about 20 µM.
`CC(C)(Sc1cc(C(C)(C)C)c(O)c(C(C)(C)C)c1)Sc1cc(C(C)(C)C)c(O)c(C(C)(C)C)c1` [probucol, 2,6-ditert-butyl-4-[2-(3,5-ditert-butyl-4-hydroxyphenyl)sulfanylpropan-2-ylsulfanyl]phenol] was tested, and the “difference of CAP between ototoxicity and ototoxicity with probucol sides” value (“difference … with probucol sides” below) ([2]; 6 kHz, probucol injected into bulla around RWM) was 23.4±9.49 dB, the “difference … with probucol sides” value ([2]; 10 kHz) was 21.89 ± 7.72 dB and the “difference … with probucol sides” value ([2]; 14 kHz) was 16.56±4.15 dB. For the same compound, the “hearing protection in the ototoxicity guinea pig model” value ([2]; guinea pig, in vivo) was “hearing protection effect”, the “thresholds of hearing (CAP) versus control side” value ([2]; significant only at 6 and 10 kHz) was “better thresholds of hearing” and the “density of SGNs in the basal turn versus ototoxicity alone group” value ([3]; basal turn of cochlea, significant) was “significantly larger density; also recorded: kept not to be injured”. The “effect on hair cell damages by ototoxicity drugs” value ([3]; guinea pig, in vivo) was “protective effect”, the “cell survival compared with control” value (HEI-OC1 cells [4]; probucol 20 μM and 50 μM with cisplatin, 24 h) was “promoted the cell survival” and the “cellular mitogenesis compared with control” value (HEI-OC1 cells [4]; probucol 100 μM, attributed to high concentration of vehicle DMSO) was “significant decrease in cellular mitogenesis”. The “mean difference between left and right CAP thresholds” value ([5]; 2 kHz, insignificant) was 3 dB, the “hearing loss (CAP thresholds compared to baseline), probucol-treated cochleae” value ([5]; about 100 μL probucol-gel on round window, after kanamycin and furosemide, significant at all frequencies except 6 and 10 kHz) was 11-40 dB and the “average CAP threshold compared to non-probucol treated cochlea” value ([5]; at 6 kHz and 10 kHz) was “significantly lower”.
